pIC50: −log10 of the molar value.

The test concerns the target T1, GST-ALK5 (Homo sapiens, UniProt P36897).
T1 sequence (P36897 34-503): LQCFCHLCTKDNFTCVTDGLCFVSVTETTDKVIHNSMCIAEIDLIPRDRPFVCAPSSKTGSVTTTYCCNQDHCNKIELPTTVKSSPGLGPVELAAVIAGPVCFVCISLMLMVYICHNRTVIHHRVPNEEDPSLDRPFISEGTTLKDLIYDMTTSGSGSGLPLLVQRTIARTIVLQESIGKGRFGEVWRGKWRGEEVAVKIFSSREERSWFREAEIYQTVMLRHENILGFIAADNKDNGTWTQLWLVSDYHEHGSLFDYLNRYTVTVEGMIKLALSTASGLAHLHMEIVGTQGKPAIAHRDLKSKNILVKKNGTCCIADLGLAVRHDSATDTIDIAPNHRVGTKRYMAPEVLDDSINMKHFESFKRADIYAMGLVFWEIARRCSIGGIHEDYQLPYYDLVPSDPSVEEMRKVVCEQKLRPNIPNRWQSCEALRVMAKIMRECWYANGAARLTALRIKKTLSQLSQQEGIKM
Kind of test: In-vitro (enzyme) kinase assay, 384-well flashplate, inhibition of TGF-beta receptor I kinase. The test is classed as biochemical. Particulars: 31.2 nM GST-ALK5, 439 nM GST-SMAD2, 3 mM ATP (33P-ATP), 30° C., 45 min. Here is the method:
In-Vitro (Enzyme) Assay for the Determination of the Efficacy of Inhibitors of the Inhibition of TGF-Beta-Promoted Effects Vermittelten Wirkungen
The kinase assay is carried out as 384-well flashplate assay. 31.2 nM of GST-ALK5, 439 nM of GST-SMAD2 and 3 mM of ATP (with 0.3 μCi of ^33P-ATP/well) are incubated in a total volume of 35 μl (20 mM of HEPES, 10 mM of MgCl, 5 mM of MnCl, 1 mM of DTT, 0.1% of BSA, pH 7.4) without or with test substance (5-10 concentrations) at 30° C. for 45 min. The reaction is stopped using 25 μl of 200 mM EDTA solution, filtered with suction at room temperature after 30 min, and the wells are washed with 3 times 100 μl of 0.9% NaCl solution. Radioactivity is measured in the TopCount. The IC50 values are calculated using RS1.

A word on the pIC50: it is −log10 of the IC50, conventionally taken in molar units. As to `CNc1nc(-c2ccc(C)o2)c2c(N)c(C(N)=O)sc2n1` [Compound A34, 5-amino-2-methylamino-4-(5-methylfuran-2-yl)thieno[2,3-d]pyrimidine-6-carboxamide], the pIC50 is 7.44.

For the compound `CSc1nc(-c2ccc(C)o2)c2c(N)c(C(N)=O)sc2n1` [Compound A10, 5-Amino-4-(5-methylfuran-2-yl)-2-methyl-sulfanylthieno[2,3-d]pyrimidine-6-carboxamide], the pIC50 is 7.34.

As for `C=CCNc1nc(-c2ccc(C)o2)c2c(N)c(C(N)=O)sc2n1` [Compound A42, 2-allylamino-5-amino-4-(5-methylfuran-2-yl)-thieno[2,3-d]pyrimidine-6-carboxamide], the pIC50 is 7.17.

`Cc1cccc(-c2nc(NCCC#N)nc3sc(C(N)=O)c(N)c23)n1` [Compound A56, 5-amino-2-(2-cyanoethylamino)-4-(6-methylpyridin-2-yl)thieno[2,3-d]-pyrimidine-6-carboxamide]: the negative logarithm of the IC50 (pIC50) was 7.10.

As for `C#CCNc1nc(-c2cccc(C)n2)c2c(N)c(C(N)=O)sc2n1` [Compound A52, 5-amino-4-(6-methylpyridin-2-yl)-2-prop-2-ynylaminothieno[2,3-d]pyrimidine-6-carboxamide], the pIC50 is 7.27.

For `Cc1ccc(-c2nc(C3CC3)nc3sc(C(N)=O)c(N)c23)o1` [Compound A1, 5-amino-2-cyclopropyl-4-(5-methylfuran-2-yl)-thieno[2,3-d]pyrimidine-6-carboxamide], the pIC50 is 7.32.

`C=CCNc1nc(-c2cccc(C)n2)c2c(N)c(C(N)=O)sc2n1` [Compound A50, 2-allylamino-5-amino-4-(6-methylpyridin-2-yl)thieno[2,3-d]pyrimidine-6-carboxamide]: the pIC50 was 7.66.

`CSc1nc(-c2ccco2)c2c(N)c(C(N)=O)sc2n1` [Compound A8, 5-amino-4-furan-2-yl-2-methylsulfanylthieno[2,3-d]pyrimidine-6-carboxamide]: the pIC50 was 7.01.

`Cc1ccc(-c2nc(C(C)(C)C)nc3sc(C(N)=O)c(N)c23)o1` [Compound A26, 5-amino-2-tert-butyl-4-(5-methylfuran-2-yl)thieno[2,3-d]pyrimidine-6-carboxamide] showed a pIC50 of 7.11.

As to `CC(C)(C)c1nc(-c2ccco2)c2c(N)c(C(N)=O)sc2n1` [Compound A25, 5-amino-2-tert-butyl-4-furan-2-ylthieno[2,3-d]pyrimidine-6-carboxamide], the pIC50 was 7.06.

The values are drawn from patent US20110028472A1, “THIENOPYRIMIDINES” (MERCK PATENT CESELLSCHAFT MIT BESCHRANKTER HAFTUNG, priority 2008, published 2011).
